In patent US5610174A, “Use of α1A -selective adrenoceptor agonists for the treatment of urinary incontinence” (priority 1995, dated 1997):

Experiments:
[1] = molecular target: T1, female dog urethra (α1-adrenoceptor) (Canis lupus, UniProt A0A8I3NK63); test: Contractile study in isolated female dog urethra; conditions: for pEC50 Urethra: agonist contraction
T1 sequence (A0A8I3NK63 1-466): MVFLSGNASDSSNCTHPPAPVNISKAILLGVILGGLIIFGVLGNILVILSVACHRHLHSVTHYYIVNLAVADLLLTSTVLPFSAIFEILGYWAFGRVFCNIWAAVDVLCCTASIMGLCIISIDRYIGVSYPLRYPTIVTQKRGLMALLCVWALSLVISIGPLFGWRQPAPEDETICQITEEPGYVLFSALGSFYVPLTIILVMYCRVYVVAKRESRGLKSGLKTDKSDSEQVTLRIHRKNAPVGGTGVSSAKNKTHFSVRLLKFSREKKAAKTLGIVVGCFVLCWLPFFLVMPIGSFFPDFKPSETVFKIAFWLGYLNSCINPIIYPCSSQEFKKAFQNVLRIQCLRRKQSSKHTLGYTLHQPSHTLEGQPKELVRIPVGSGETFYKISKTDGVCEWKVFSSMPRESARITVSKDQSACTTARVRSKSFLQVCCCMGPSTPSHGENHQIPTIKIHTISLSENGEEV
From the text: (§1) In addition, similar studies were done using bladder neck tissue from female dogs. In order to identify the specific receptor subtype in each tissue, the pharmacological profile was compared to the profiles for these same drugs at the cloned human α1A, α1B, or α1C subtypes.
(§2) Tissue samples from the proximal urethra of male humans and male and female rabbits, as well as tissue samples from both the proximal urethra and bladder neck of male and female dogs were cut into transverse strips (3×10 mm) and suspended under 0.5 g tension in Krebs' physiological buffer at 37° C. To determine agonist potency (pEC50 )and antagonist affinity constants (pKB), concentration-effect curves to the non-selective agonist phenylepherine were constructed in the absence and in the presence of increasing concentrations of the antagonist. Up to four sequential curves were constructed in each tissue. Antagonists were allowed to equilibrate for 1h before each concentration-effect curve, and the drugs were completely washed out in between successive curves. In each experiment, one tissue served as a "time control", in which no antagonist was added so that changes in tissue sensitivity could be assessed as a function of time. […] In instances in which a single concentration of antagonist was used, pKB values were determined by the equation: […], where CR is defined as the ratio of the agonist EC50 in the presence of the antagonist to that in the absence of the antagonist.

[2] = molecular target: T2, human histamine H2 receptor (Homo sapiens, UniProt P25021); test: Radioligand binding at cloned human histamine H2; conditions: [3H]tiotidine
T2 construct: expressed in transfected cells; host or cells: COS-7 (plasmid pcEXV-H2, ATCC 75345)
Procedure: Human Histamine H2 Receptor
The coding sequence of the human H2 receptor was obtained from a human placenta genomic library, and cloned into the cloning site of PCEXV-3 eukaryotic expression vector. The plasmid DNA for the H2 receptor is designated pcEXV-H2, and was deposited on Nov. 6, 1992 under ATCC Accession No. 75345. This construct was transfected into COS-7 cells by the DEAE-dextran method. Cells were harvested after 72 hours and lysed by sonication in 5 mM Tris-HCl, 5 mM EDTA, pH 7.5. The cell lysates were centrifuged at 1000 rpm for 5 min at 4° C., and the supernatant was centrifuged at 30,000×g for 20 min at 4° C. The pellet was suspended in 37.8 mM NaHPO4, 12.2 mM K2PO4, pH 7.5. The binding of the histamine H2 antagonist [3H] tiotidine (5 nM, specific activity: about 70 Ci/mM) was done in a final volume of 0.25 ml and incubated at room temperature for 60 min. Nonspecific binding was determined in the presence of 10 μM histamine. The bound radioligand was separated by filtration through GF/B filters using a cell harvester.

[3] = molecular target: T3, rabbit urethra, female (α1-adrenoceptor) (Oryctolagus cuniculus, UniProt O02824); test: Contractile study in isolated female rabbit urethra; conditions: versus phenylephrine-induced contraction; read-out: pKB Rabbit Urethra Female (converted)
T3 construct: proximal urethra of male humans and male and female rabbits; from tissue; host or cells: rabbit proximal urethra strips, male or female
T3 sequence (O02824 1-466): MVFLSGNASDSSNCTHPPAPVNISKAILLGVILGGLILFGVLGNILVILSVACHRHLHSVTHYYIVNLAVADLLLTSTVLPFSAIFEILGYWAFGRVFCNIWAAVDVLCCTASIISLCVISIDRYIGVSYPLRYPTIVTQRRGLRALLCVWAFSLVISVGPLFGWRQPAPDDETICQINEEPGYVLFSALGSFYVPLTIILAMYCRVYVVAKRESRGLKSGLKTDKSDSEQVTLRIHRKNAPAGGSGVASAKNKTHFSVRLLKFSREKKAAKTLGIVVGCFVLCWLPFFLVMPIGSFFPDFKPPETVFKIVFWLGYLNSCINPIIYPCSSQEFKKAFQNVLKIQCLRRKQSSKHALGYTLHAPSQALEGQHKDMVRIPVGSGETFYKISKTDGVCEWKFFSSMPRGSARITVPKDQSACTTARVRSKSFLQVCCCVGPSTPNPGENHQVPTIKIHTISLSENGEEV
From the text: as §1, §2

[4] = molecular target: T4, rabbit urethra, male (α1-adrenoceptor) (Oryctolagus cuniculus, UniProt O02824); test: Contractile study in isolated male rabbit urethra; conditions: versus phenylephrine-induced contraction
T4 sequence (O02824 1-466): T3 sequence (O02824 1-466)
From the text: as §1, §2

T2 sequence (P25021 whole entry): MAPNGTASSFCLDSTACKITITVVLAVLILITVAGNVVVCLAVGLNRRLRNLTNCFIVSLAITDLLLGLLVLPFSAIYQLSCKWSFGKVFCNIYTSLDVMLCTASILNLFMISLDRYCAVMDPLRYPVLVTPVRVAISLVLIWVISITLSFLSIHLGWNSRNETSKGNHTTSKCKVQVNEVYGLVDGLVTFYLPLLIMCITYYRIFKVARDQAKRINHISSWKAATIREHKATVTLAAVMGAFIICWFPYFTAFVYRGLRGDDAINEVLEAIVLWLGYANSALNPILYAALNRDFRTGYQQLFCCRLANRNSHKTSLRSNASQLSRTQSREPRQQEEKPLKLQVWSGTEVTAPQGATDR

SMILES	sensitivity of the contraction to prazosin, urethra [1]	pEC50 Urethra [1]	Kb [3]	pKB Rabbit Urethra Male [4]	other results
CS(=O)(=O)Nc1c(O)ccc2c1CCCC2C1=NCCN1 (racemic) [Compound A-61603, (±)-N-[5-(4,5-Dihydro-1H-imidazol-2-yl)-2-hydroxy-5,6,7,8-tetra-hydronaphthalen-1-yl]methanesulfonamide]	highly sensitive to prazosin	6.7			
COc1ccc(SC)c2c1C[C@@H]1[C@@H](C2)OCCN1C (relative stereo) [SDZ NVI-085, (±)-trans-4-Methyl-6-methoxy-9-thiomethoxy-3,4,4a, 5,10,10a-hexahydro-2H-naphtho[2,3-b][1,4]oxazine]					Ki ([2]; read-out: pKi H2 (converted)): 6310 nM
COc1cc2c(cc1OC)CN(c1cc(N)c3cc(OC)c(OC)cc3n1)CC2 [Abanoquil, 2-(6,7-Dimethoxy-3,4-dihydro-1H-isoquinolin-2-yl)-6,7-dimethoxyquinolin-4-ylamine hemifumarate hydrate]			2 nM	8.7	
COc1ccccc1N1CCN(CCCNc2c(C)c(=O)n(C)c(=O)n2C)CC1 [Compound 5-MU]			39.8 nM	7.8	
CNCCc1ccc(O)c(NS(C)(=O)=O)c1 [SK&F 102652]	highly sensitive to prazosin	6.0			pKi H2 [2]: 4.6
